This is an account of results in article PMC5793121 (Toxins, 2018).

The subject of series [1] is mice. To be noted: mouse, in vivo; cited from earlier work.
For series [2] the following is noted: human; cited from earlier work. An excerpt: Pharmacokinetics and pharmacodynamics are the empirical mathematical models that describe the time course of drug effect after administration. Pharmacokinetics describes the disposition of drug in the organism, while pharmacodynamics relates the drug effects to their concentration in the plasma and at the site of action. They can be used to predict the drug action at different doses and by this way to optimize the safe and effective use of the drug. Information from pharmacokinetic studies can be used in the design and analysis of data from other toxicity studies. Several pharmacokineti ...

For series [3], the system named is hprt gene of CHO-k1 cells. Particulars: n = 6.
The subject of series [4] is human neuronal heteromeric α3-containing nAChRs (α3β2, α3β4, etc.). The class given is cell-based.
The subject of series [5] is mice. Particulars: 0.1 mg/kg; cited from earlier work.
Series [6] concerns the target T1, mouse muscle type α1β1εδ nAChR (Mus musculus, UniProt P02716+P04756+P20782).
T1 construct: expressed in transfected cells; host or cells: mouse neuroblastoma Neuro2a, transient transfection (pRBG4 plasmids), co-expressed with Case12 calcium sensor
Nature of the series: Calcium imaging of ACh-evoked [Ca2+]i rise in Neuro2a cells expressing muscle nAChR (Case12 sensor). The class given is cell-based. Here is the method:
(§1) Mouse neuroblastoma Neuro2a cells were purchased from the Russian collection of cell cultures (Institute of Cytology, Russian Academy of Sciences, Saint Petersburg, Russia). Cells were cultured in DMEM (Paneco, Moscow, Russia) supplemented with 10% FBS. They were sub-cultured the day before transfection and were plated at a density of 10,000 cells per well in a 96-well black plate. On the next day Neuro2a cells were transiently transfected with plasmids coding mouse muscle α1β1δε nAChR (pRBG4-vector) and a fluorescent calcium sensor Case12 (pCase12-cyto vector, Evrogen, Moscow, Russia) in a molar ratio of 2:1 following a lipofectamine transfection protocol (ThermoFisher Scientific, Waltham, MA, USA). Human α7 nAChR (α7 nAChR-pCEP4) was expressed accordingly with a co-expression of the human chaperone Ric-3 (Ric3-pCMV6-XL5, OriGene, Rockville, MD, USA) in a molar ratio 4:1. The transfected cells were grown at 37 °C in a CO2 incubator for 48–72 h, before performing the calcium imaging assay.
Calcium imaging procedure was performed as published earlier. Briefly, after removing the growth medium, the transfected Neuro2a cells and cultivated SH-SY5Y cells were washed with a buffer containing 140 mM NaCl, 2 mM CaCl2, 2.8 mM KCl, 4 mM MgCl2, 20 mM HEPES, 10 mM glucose; pH 7.4. Neuro2a cells expressing muscle nAChR and the protein calcium sensor Case12 were proceeded directly, while SH-SY5Y cells expressing human α3-containing nAChRs natively were loaded with a fluorescent dye Fluo-4, AM (1.824 μM, ThermoFisher Scientific, Waltham, MA, USA) and a water-soluble probenecid (1.25 mM, ThermoFisher Scientific, Waltham, MA, USA) for 30 min at 37 °C and then were kept for 30 min at room temperature according to the manufacturer’s protocol.
To detect the human α7 nAChR-mediated calcium response, transfected Neuro2a cells were incubated with its positive allosteric modulator PNU120596 (10 μM, Tocris Bioscience, Bristol, UK) for 20 min at room temperature before acetylcholine (Sigma-Aldrich Chemie Gmbh, Munich, Germany) addition. To assess mouse muscle or human α3-containing nAChRs this step was skipped. […]
(§2) The plates were transferred to the multimodal microplate reader Hidex Sence (Hidex, Turku, Finland) where the cells were excited by light of 485 nm wavelength and emitted fluorescence was detected at 535 ± 10 nm. Fluorescence was recorded every 2 s for three minutes following agonist addition. Responses were measured as peak intensity minus basal fluorescence level and were expressed as a percentage of the maximal response obtained to agonist. Data files were analyzed using Hidex Sence software (Hidex, Turku, Finland) and OriginPro 7.5 software (OriginLab, Northampton, MA, USA, for statistical analysis).

Series [7] has as its system male ICR mice. Nature of the series: Forelimb grip strength test (muscle relaxant effect) after intramuscular administration. The class given is in vivo, mouse. As for the experimental part: 40 male ICR mice were divided equally into four groups: one control and three experimental groups. Animals of the control and experimental groups were treated with normal saline and with Az at doses of 0.03, 0.1 and 0.3 mg/kg, respectively. In addition 6 mice were treated with Az at dose of 0.01 mg/kg. The corresponding solutions were injected into the triceps muscles of the mouse forelimbs at a volume of 0.5 mL/kg per each limb. For all animals their basic forelimb grip strength was recorded before the substance administration with a 1027 grip strength meter (Columbus Instruments, Columbus, OH, USA). Further, their grip strength was measured 5, 10, 15, 20, 30, 60, 90 min after the Az (or normal saline) im administration.
Rocuronium was administered intramuscularly as described for the measurement of acute toxicity (Section 5.4.1). Muscle strength was assessed prior to administration of the substance and then 1, 2, 3, 4, 5 min after administration.

Series [8] addresses T2, human neuronal homopentameric α7 nAChR (Homo sapiens, UniProt P36544).
T2 construct: expressed in transfected cells; host or cells: mouse neuroblastoma Neuro2a, transient transfection (α7 nAChR-pCEP4) with human Ric-3 (Ric3-pCMV6-XL5, OriGene)
Description: Calcium imaging of ACh-evoked [Ca2+]i rise in Neuro2a cells expressing α7 nAChR. The class given is cell-based. Particulars: 10 μM ACh (EC50); transfected Neuro2a cells, PNU120596 10 μM; 15 min preincubation; mean ± SEM, 4 independent experiments; read-out: IC50, inhibition of ACh-evoked calcium response of α7 nAChR. Here is the method:
as §1, with “Human α7 nAChR (α7 nAChR-pCEP4) was expressed accordingly with a co-expression of the human chaperone Ric-3 (Ric3-pCMV6-XL5, OriGene, Rockville, MD, USA) in a molar ratio 4:1. The transfected cells were grown at 37 °C in a CO2 incubator for 48–72 h, before performing the calcium imaging assay.” left out
as §2

Series [9] relates to cultured human peripheral blood lymphocytes. Particulars: concentrations without significant cytotoxic effect; cited from earlier work. An excerpt: Mutagenicity, that is the induction of permanent transmissible changes in the amount or structure of the genetic material of cells or organisms, is very important parameter of drug candidate. Highly mutagenic compounds can hardly be considered for drug development, therefore mutagenicity studies are a necessary phase in preclinical evaluations.

Another series deals with rats. To be noted: iv injection to rats; cited from earlier work. As for the experimental part:
Acute toxicity of Az was determined using different administration ways: intraperitoneal (ip), intramuscular (im) and intravenous (iv) injections.

Series [10] relates to male ICR mice. Nature of the series: in vivo. Here is the method:
Az acute toxicity was estimated for its intravenous (iv) and intramuscular (im) administration to male ICR mice in a stepwise procedure.
For the iv route of administration, 20 mice were randomly divided in 5 groups of 4 animals each. The animals of each group received a single dose of Az (0.3, 0.4, 0.5, 0.6, or 0.7 mg/kg, respectively) injected into the lateral tail vein at a volume of 1 mL/kg. For the im route of administration, first two experimental groups of 3 animals each were formed. Az at doses of 0.75 and 1.0 mg/kg, respectively, was injected into the quadriceps muscle of the thigh (quadriceps femoris muscle) of two mouse hind limbs at a volume of 0.5 mL/kg to each muscle. Then, five experimental groups of 5 animals each were formed. Az was injected into the quadriceps muscle of the thigh (quadriceps femoris muscle) of the two hind limbs of male ICR mice at doses of 0.8, 0.775, 0.75, 0.725 and 0.7 mg/kg. The injection volume to each limb was 1 mL/kg. Further, neurotoxic manifestations were recorded in animals at 5, 10, 20, 30, 60 and 90 min and 24 h after administration using the functional observation battery, the number of death was counted as well.
For the iv and im route of administration, the median lethal dose (LD50) was calculated using a probit analysis. For the im route of administration, the maximum tolerated dose was determined.
Rocuronium was administered intramuscularly at doses of 0.13 mg/kg (n = 1), 0.1 mg/kg (n = 4) and 0.08 mg/kg (n = 4) in the triceps of the forelimbs of male ICR mice (8–9 weeks old). Control animals were injected with saline (n = 4). The volume of administration was 0.5 mL/kg in each limb.

How the values of series [11] were obtained: The pharmacokinetic study was performed using 163 male ICR mice. Four experimental groups with 40 animals in each were formed. Three intact mice were used as control animals. The animals of the first two experimental groups were intravenously injected with 0.25 and 0.50 mg/kg [^125I]-Az, respectively. The animals of the other two experimental groups were intramuscularly injected with 0.25 and 0.50 mg/kg [^125I]-Az, respectively. To estimate Az elimination rate, animal blood samples were taken from the orbital sinus 5, 15, 30, 60 min and 1, 2, 4 and 24 h after [^125I]-Az administration. The obtained blood samples were weighed. For each indicated time point, [^125I]-Az concentration was calculated as a mean value in blood samples of five animals. The radioactivity (cpm) in the blood samples was counted using a Wallac 1470 WIZARD® Gamma Counter (Perkin Elmer, Waltham, MA, USA). […] Radioactivity data (cpm) were re-calculated to the concentration of [^125I]-Az in the obtained blood samples. The specific pharmacokinetic parameters (AUC (0 → t), Cmax, T1/2) of [^125I]-Az were estimated.

The mark [12] stands for this setting: intramuscular administration, 0.25 and 0.5 mg/kg, male ICR mice.

“Also recorded” adds a separate entry of the source. Read-outs that look alike come from different tables or passages of the source.

T1 sequence (P09690 24-501): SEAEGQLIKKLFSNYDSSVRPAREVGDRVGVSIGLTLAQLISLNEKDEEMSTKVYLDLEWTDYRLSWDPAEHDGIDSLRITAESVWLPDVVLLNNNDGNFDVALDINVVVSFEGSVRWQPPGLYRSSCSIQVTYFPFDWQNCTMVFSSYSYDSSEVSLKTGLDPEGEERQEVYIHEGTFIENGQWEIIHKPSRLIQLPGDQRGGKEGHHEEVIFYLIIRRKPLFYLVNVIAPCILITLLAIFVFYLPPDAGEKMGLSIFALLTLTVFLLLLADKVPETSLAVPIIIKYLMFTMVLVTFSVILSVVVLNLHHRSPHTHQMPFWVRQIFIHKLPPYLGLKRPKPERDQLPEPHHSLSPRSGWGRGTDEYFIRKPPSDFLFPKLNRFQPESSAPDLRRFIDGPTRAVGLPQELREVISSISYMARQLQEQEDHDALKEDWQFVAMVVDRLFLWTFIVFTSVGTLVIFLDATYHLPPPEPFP
T1 sequence (P04756 21-457): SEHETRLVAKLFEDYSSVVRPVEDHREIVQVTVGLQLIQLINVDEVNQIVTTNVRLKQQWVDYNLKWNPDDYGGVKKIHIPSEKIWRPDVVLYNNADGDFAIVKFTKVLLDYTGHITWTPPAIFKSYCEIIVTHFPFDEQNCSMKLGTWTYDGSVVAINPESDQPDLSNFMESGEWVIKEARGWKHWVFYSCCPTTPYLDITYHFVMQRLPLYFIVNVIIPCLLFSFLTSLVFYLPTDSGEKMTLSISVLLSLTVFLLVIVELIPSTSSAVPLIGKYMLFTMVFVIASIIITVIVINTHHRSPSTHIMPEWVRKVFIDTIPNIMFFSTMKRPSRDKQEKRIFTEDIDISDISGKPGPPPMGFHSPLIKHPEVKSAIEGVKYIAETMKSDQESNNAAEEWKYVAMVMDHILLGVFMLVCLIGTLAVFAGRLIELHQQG
T1 sequence (P02716 25-520): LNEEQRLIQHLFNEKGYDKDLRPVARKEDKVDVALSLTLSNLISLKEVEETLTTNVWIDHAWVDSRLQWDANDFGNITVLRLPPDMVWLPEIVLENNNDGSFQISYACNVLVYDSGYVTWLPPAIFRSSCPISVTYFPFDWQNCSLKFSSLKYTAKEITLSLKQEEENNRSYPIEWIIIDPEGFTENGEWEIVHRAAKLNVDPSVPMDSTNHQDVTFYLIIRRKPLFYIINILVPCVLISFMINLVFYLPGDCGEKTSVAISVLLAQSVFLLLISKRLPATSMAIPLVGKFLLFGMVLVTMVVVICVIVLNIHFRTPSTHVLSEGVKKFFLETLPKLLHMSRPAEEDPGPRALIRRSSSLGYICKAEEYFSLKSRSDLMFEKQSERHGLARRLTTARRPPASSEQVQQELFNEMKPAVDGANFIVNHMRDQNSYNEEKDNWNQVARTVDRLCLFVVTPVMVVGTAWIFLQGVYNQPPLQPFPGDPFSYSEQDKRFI
T1 sequence (P20782 21-493): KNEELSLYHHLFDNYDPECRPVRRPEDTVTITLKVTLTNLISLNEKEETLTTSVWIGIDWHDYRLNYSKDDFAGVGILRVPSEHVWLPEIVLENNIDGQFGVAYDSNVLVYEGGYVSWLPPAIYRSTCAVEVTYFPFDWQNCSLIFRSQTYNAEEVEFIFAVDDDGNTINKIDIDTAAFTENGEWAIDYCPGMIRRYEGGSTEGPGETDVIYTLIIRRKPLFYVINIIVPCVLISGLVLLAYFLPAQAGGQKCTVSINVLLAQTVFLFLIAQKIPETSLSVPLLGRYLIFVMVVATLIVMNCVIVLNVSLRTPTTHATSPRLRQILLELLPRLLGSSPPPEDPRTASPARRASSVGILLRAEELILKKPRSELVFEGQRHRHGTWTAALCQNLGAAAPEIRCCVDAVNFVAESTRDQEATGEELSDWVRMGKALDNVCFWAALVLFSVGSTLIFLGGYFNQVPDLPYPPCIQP
T2 sequence (P36544 23-502): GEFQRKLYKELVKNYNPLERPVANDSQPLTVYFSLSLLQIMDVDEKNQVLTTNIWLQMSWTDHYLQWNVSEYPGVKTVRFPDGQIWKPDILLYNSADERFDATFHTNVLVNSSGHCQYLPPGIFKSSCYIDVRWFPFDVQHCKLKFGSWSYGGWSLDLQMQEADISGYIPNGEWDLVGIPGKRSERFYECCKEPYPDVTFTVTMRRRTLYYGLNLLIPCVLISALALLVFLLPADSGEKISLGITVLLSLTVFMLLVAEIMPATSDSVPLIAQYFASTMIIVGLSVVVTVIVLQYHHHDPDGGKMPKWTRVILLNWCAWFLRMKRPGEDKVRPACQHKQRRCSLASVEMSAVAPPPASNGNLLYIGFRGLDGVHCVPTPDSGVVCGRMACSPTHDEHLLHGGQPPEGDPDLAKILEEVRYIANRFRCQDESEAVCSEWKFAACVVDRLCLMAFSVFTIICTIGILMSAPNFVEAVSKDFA

For the compound `COc1cc2c3cc1Oc1cc(ccc1O)C[C@@H]1c4c(cc(OC)c(O)c4Oc4ccc(cc4)C[C@@H]3N(C)CC2)CC[N+]1(C)C` [(+)-tubocurarine], in the series with mice [1], the 50% lethal dose (LD50) (as a rule, the dose expected to kill half of the subjects tested) is given as 0.11 mg/kg.

Take `COc1ccc(CC2c3cc(OC)c(OC)cc3CC[N+]2(C)CCC(=O)OCCCCCOC(=O)CC[N+]2(C)CCc3cc(OC)c(OC)cc3C2Cc2ccc(OC)c(OC)c2)cc1OC` (stereo not drawn) [atracurium]: the excretion half-life in [2] is given as 17 min.

Turning to `CCN(N=O)C(N)=O` [ethylnitrosurea, reference compound], the “frequency of mutations in the hprt gene” value in series [3] (positive control 6.25 and 12.5 μg/mL, absence of S9) is reported as 33.9–39.5 × 10^−6.

In the case of `Cc1ccc2cc3c(ccc4ccccc43)c3c2c1CC3` [methylcholanthrene, reference compound], in [3] (positive control 2.5 and 5 μg/mL, presence of S9), the “frequency of mutations in the hprt gene” value is on record as 35.7–45.7 × 10^−6.

As to `CN1CCC[C@H]1c1cccnc1` [nicotine, reference compound], in [4] (read-out: EC50 of nicotine-induced calcium responses), the EC50 (in general, the concentration needed to bring the measured effect to its halfway point) came out at 22 ± 2 µM.

As to `CC(=O)O[C@H]1C[C@@H]2CC[C@@H]3[C@H](CC[C@@]4(C)[C@H]3C[C@H]([N+]3(C)CCCCC3)[C@@H]4OC(C)=O)[C@@]2(C)C[C@@H]1[N+]1(C)CCCCC1` [pancuronium], the “decrease of grip strength” value in the series with mice [5] is given as 24.1%.

As for `C=CC[N+]1([C@H]2C[C@H]3[C@@H]4CC[C@H]5C[C@H](O)[C@@H](N6CCOCC6)C[C@]5(C)[C@H]4CC[C@]3(C)[C@H]2OC(C)=O)CCCC1` [rocuronium, Rocuronium Bromide, reference compound], the IC50 – broadly, the concentration that gives 50% inhibition – in series [6] (30 μM ACh (EC100), transfected Neuro2a cells, Case12 sensor, 15 min preincubation, mean ± SEM, 4 independent experiments, read-out: IC50, inhibition of ACh-evoked calcium response of muscle nAChR) was 0.257 ± 0.0955 µM; in series [8] it was 25.7 ± 4.5 µM. Also, the “selectivity to muscle receptor versus α7 nAChR” value in [6] (ratio of calcium imaging IC50 values α7 / muscle) is recorded as “about 100 times”. Besides, in the series with male ICR mice [7] (rocuronium 0.08 mg/kg im, n = 4), the “effect on grip strength compared to control” value was “no statistically significant difference; also recorded: no statistically significant relaxing effect”. Besides, the grip strength in the series with male ICR mice [7] (rocuronium 0.13 mg/kg im, after 60 s, n = 1) is given as 0 kg. The “time after injection at which effect disappeared” value with male ICR mice [7] (rocuronium im) is on record as at most 5 min. The genotoxicity result in [9] is listed as “capable of causing genotoxicity via clastogenic effects”. Further, the “inhibition of Nic induced responses” value in series [4] is on record as “about 60%”. Besides, in the series with rats, the LD50 entry was “about 0.3 mg/kg”. Besides, the Cmax in series [2] is 27 µg/kg. Besides, in [2], the excretion half-life is 71 min. Further, the “visible signs of toxicity” value in the series on male ICR mice [10] (rocuronium im 0.08 mg/kg) is on record as “did not induce visible signs of toxicity”. Further, the “time after administration at which toxicity signs disappeared” value with male ICR mice [10] (rocuronium im 0.1 mg/kg) was 3 to 4 min. Moreover, the “time of first signs of intoxication after injection” value in the series with male ICR mice [10] (rocuronium im 0.13 mg/kg) is 30 s. In addition, in the series with male ICR mice [10] (rocuronium im 0.13 mg/kg, n = 1), the “time of death after injection” value came out at 11.5 min. For the same compound, the lethality result in the series on male ICR mice [10] (rocuronium im 0.08 and 0.1 mg/kg, n = 4 each) is “did not cause the death of animals”.

For the compound `CC(=O)O[C@H]1C[C@@H]2CC[C@@H]3[C@H](CC[C@@]4(C)[C@H]3C[C@H]([N+]3(C)CCCCC3)[C@@H]4OC(C)=O)[C@@]2(C)C[C@@H]1N1CCCCC1` [vecuronium], the LD50 in the series on mice [1] is 0.05 mg/kg. Moreover, in [2], the Cmax entry is reported as “about 1 µg/mL”.

For diiodoazemiopsin [[^125I]-Az], in series [11] (during 24 h, both iv and im administration), the “removal from the free blood flow” value is “almost completely removed”. Also, in [11] (setting [12]), the “half-life T1/2” value fell in the range of 20 to 40 min and the “time within which maximum concentration (Cmax) was achieved” value is “five”. Besides, the “excretion half-life (T1/2)” value in series [11] (single intravenous injection, 0.25 and 0.5 mg/kg, male ICR mice) was 15 to 20 min. Moreover, the lethality entry in the series on male ICR mice [10] ([125I]-Az single iv and im 0.25 and 0.50 mg/kg, male ICR mice) was “No lethality”.

Turning to α-conotoxin MII [reference compound], the 50% inhibitory concentration (IC50) in series [4] (read-out: IC50, inhibition of calcium responses induced by 100 µM nicotine) turned out to be 0.06 ± 0.004 µM.
